In patent US11572590B2, “Methods for evaluating tumor cell spheroids using 3D microfluidic cell culture device” (Dana-Farber Cancer Institute, Inc., priority 2017, dated 2023) one finds inhibition data, which are given here for one compound.

Read-outs that look alike come from different tables or passages of the source.

Holding throughout (assay): SelectScreen Kinase Profiling, single point inhibition and IC50 for off-target kinases
Common to all, as to format: biochemical

The target in assay [1] is off-target kinases (Homo sapiens, UniProt O60674). Particulars: ATP Km app, ZLYTE.
Sequence of off-target kinases (Homo sapiens, UniProt O60674) (O60674 whole entry): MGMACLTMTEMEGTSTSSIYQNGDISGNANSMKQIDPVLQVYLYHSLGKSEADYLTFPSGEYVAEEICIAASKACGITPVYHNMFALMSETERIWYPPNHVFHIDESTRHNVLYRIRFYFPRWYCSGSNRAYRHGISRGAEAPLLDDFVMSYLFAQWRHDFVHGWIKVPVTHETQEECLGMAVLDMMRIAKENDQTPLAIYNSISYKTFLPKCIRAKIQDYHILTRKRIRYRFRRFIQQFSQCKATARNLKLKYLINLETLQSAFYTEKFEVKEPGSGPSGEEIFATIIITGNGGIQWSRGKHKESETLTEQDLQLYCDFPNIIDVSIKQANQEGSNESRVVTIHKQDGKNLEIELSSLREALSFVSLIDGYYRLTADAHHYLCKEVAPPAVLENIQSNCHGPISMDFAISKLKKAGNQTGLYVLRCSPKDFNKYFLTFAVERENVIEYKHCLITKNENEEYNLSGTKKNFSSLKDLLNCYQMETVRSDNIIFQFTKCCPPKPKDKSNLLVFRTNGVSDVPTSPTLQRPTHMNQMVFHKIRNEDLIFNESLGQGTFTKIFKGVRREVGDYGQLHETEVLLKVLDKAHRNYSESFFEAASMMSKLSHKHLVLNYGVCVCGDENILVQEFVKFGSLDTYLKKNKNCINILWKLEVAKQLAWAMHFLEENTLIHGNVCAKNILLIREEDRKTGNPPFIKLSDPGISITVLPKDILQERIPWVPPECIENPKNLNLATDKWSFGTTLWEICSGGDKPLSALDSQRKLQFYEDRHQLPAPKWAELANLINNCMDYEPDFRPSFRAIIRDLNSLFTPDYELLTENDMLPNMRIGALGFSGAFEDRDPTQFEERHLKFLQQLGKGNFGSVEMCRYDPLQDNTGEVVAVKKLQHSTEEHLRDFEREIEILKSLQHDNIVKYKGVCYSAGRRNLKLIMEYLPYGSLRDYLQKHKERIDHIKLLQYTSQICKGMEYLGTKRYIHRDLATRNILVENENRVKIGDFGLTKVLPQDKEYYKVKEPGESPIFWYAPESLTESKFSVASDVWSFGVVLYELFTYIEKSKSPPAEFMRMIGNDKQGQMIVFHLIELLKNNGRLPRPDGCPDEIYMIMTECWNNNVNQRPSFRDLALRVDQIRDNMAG
For assay [2], the target named is off-target kinases (Homo sapiens, UniProt O60674, V617F). Particulars: JAK2 JH1 JH2 V617F, ATP Km app, ZLYTE.
Sequence of off-target kinases (Homo sapiens, UniProt O60674, V617F) (O60674 whole entry V617F): as the sequence (O60674 whole entry) above, with V617F counted along it
Assay [3] deals with off-target kinases (Homo sapiens, UniProt P00533, L858R/T790M). Particulars: EGFR (ErbB1) T790M L858R, mutant y, ZLYTE, ATP Km app.
Sequence of off-target kinases (Homo sapiens, UniProt P00533, L858R/T790M) (P00533 25-1210 T790M/L858R): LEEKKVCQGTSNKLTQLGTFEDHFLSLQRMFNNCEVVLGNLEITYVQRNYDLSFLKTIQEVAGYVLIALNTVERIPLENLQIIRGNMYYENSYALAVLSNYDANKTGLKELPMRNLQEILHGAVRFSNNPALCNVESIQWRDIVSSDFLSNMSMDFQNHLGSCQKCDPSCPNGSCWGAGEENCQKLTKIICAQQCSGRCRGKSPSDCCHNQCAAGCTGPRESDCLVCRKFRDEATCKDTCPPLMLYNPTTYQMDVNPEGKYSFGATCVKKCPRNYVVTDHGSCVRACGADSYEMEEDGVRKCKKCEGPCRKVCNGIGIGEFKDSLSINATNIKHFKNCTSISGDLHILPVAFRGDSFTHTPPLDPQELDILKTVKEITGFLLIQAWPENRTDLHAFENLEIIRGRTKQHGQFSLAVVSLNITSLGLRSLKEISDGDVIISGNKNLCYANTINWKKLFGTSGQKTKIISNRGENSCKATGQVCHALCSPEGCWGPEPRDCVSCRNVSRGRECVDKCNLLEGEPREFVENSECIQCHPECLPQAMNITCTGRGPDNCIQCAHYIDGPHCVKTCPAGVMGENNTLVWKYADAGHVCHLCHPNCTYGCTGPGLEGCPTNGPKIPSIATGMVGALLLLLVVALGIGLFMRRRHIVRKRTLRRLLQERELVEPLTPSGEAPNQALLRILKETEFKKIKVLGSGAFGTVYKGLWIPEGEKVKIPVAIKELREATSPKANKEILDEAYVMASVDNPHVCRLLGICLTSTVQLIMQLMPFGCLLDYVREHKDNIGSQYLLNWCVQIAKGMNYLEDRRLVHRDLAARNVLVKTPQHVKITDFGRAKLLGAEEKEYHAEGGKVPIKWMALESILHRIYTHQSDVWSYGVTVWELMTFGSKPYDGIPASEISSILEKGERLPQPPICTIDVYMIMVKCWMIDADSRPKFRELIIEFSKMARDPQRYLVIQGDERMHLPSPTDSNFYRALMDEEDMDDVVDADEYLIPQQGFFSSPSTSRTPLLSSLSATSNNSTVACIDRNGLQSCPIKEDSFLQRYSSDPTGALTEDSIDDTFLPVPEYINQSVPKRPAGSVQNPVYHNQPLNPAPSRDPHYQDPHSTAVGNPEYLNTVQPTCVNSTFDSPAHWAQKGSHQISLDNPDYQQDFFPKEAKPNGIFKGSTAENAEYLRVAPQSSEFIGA
For assay [4], the target named is off-target kinases (Homo sapiens, UniProt P05771). Particulars: PRKCB1 (PKC beta I), ZLYTE, ATP Km app.
Sequence of off-target kinases (Homo sapiens, UniProt P05771) (P05771 whole entry): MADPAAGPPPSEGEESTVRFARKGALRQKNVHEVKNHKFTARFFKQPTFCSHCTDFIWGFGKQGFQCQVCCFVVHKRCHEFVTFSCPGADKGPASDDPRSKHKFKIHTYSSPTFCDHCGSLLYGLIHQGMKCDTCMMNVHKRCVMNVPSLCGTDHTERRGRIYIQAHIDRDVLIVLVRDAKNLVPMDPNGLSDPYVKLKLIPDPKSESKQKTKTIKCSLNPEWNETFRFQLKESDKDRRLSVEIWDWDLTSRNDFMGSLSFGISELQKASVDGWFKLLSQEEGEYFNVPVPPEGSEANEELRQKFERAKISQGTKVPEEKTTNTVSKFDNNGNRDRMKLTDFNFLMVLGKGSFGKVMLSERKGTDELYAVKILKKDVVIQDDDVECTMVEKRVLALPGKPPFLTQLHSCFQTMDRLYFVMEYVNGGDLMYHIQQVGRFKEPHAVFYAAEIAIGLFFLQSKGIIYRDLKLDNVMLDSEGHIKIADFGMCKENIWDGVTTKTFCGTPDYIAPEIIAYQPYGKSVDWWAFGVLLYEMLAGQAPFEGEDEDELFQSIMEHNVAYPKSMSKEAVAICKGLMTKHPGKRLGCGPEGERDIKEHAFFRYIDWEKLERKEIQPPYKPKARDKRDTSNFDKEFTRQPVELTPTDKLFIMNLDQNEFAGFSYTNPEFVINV
In assay [5] the target is off-target kinases (Homo sapiens, UniProt P10721, T670E). Particulars: KIT T670E (mutant), LanthaScreen Binding. (In general: Time-resolved FRET reads energy transfer from a long-lived donor to a nearby acceptor.)
Sequence of off-target kinases (Homo sapiens, UniProt P10721, T670E) (P10721 26-976 T670E): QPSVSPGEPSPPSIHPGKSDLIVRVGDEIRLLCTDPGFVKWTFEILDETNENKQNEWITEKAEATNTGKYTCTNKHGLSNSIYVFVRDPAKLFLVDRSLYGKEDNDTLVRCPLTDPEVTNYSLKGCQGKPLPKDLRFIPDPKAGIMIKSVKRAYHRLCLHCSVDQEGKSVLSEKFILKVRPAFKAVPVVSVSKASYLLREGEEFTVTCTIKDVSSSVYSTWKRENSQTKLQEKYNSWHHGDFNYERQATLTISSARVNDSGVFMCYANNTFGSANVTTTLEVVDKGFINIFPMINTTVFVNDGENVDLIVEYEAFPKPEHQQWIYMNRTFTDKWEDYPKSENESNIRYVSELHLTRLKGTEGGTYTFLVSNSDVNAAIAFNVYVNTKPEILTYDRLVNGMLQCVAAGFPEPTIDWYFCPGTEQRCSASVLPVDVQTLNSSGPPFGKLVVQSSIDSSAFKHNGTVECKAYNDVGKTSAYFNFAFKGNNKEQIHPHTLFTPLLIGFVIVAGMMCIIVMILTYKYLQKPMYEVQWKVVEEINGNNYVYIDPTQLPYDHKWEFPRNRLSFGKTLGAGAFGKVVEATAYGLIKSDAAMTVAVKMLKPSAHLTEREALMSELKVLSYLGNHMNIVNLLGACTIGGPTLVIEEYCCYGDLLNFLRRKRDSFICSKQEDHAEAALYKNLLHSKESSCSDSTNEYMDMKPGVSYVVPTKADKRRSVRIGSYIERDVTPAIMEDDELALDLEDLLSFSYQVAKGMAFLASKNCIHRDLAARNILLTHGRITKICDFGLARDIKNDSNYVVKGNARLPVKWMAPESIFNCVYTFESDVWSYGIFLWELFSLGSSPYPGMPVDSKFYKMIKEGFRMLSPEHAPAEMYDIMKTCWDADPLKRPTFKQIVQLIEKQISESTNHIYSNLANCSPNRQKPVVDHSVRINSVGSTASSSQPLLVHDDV
For assay [6], the target named is T1, off-target kinases (Homo sapiens, UniProt Q9NRM7).
T1 sequence (Q9NRM7 1-1088): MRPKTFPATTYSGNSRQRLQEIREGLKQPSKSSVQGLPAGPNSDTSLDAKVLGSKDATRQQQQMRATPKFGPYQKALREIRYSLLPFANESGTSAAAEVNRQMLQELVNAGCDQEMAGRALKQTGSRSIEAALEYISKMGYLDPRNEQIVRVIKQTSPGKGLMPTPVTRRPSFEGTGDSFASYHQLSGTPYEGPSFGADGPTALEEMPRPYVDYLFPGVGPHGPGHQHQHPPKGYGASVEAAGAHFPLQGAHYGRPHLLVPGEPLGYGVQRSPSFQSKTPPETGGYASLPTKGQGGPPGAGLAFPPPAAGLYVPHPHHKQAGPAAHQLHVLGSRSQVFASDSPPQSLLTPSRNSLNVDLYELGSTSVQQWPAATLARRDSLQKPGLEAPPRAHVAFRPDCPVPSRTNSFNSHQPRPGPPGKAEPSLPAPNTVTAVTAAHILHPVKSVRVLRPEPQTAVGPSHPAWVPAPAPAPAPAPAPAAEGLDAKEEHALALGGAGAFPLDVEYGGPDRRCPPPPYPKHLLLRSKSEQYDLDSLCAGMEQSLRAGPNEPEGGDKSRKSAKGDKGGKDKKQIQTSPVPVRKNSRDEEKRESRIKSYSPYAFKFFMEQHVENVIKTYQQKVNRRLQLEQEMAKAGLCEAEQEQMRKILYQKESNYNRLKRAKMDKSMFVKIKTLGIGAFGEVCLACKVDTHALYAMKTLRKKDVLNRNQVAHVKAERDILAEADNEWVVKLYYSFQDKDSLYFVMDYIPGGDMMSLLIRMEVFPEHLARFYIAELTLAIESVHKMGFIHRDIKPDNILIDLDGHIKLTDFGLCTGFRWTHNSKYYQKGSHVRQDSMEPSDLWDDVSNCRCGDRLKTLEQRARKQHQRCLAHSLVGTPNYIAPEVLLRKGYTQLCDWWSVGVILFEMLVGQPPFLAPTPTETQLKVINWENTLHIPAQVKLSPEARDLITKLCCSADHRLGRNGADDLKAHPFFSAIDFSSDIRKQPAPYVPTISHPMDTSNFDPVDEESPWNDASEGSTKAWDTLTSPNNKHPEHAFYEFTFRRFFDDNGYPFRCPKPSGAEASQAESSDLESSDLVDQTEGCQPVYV
Particulars: LATS2, LanthaScreen Binding.

For `N#Cc1cc(-c2ncnc(Nc3ccc(N4CCN(C5COC5)CC4)cc3)n2)ccc1OC1CCOCC1` [Compound 1, 5-(4-((4-(4-(oxetan-3-yl)piperazin-1-yl)phenyl)amino)-1,3,5-triazin-2-yl)-2-((tetrahydro-2H-pyran-4-yl)oxy)benzonitrile], the inhibition at off-target kinases [1] (JAK2, read-out: % Inhibition 1) amounted to 67%; on off-target kinases [1] (JAK2, read-out: % Inhibition 2) it was 68%; on off-target kinases [1] (JAK2, read-out: % Inhibition Avg), 67%; at off-target kinases [1] (JAK2 JH1 JH2, read-out: % Inhibition 1), 46%; at off-target kinases [1] (JAK2 JH1 JH2, read-out: % Inhibition 2), 47%; on off-target kinases [1] (JAK2 JH1 JH2, read-out: % Inhibition Avg), 46%. Further, the inhibition at off-target kinases [2] (read-out: % Inhibition 1) is 54%; on off-target kinases [2] (read-out: % Inhibition 2) it was 50%; on off-target kinases [2] (read-out: % Inhibition Avg) it was 52%; at off-target kinases [3] (read-out: % Inhibition 1), 34%; on off-target kinases [3] (read-out: % Inhibition 2), 29%; at off-target kinases [3] (read-out: % Inhibition Avg), 31%. In addition, the inhibition at off-target kinases [4] (read-out: % Inhibition 1) stood at 5%; at off-target kinases [4] (read-out: % Inhibition 2), 3%; at off-target kinases [4] (read-out: % Inhibition Avg) it was 4%; at off-target kinases [5] (read-out: % Inhibition 1) it was 2%; at off-target kinases [5] (read-out: % Inhibition 2), 2%; on off-target kinases [5] (read-out: % Inhibition Avg), 2%. For the same compound, the values for the inhibition on off-target kinases [6] (read-out: % Inhibition 1), at off-target kinases [6] (read-out: % Inhibition 2) and on off-target kinases [6] (read-out: % Inhibition Avg) were 23%, 25% and 24%, respectively.

The term inhibition denotes the percentage by which the read-out fell short of the control.
